Measured values from PubChem BioAssay (NCI).
Where “and” joins values, the source holds several entries; their conditions need not be identical. Equal entries are not always repeated.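 Assay format: 96-well plates, 48-hour exposure. Abbreviation: GI50, concentration required for 50% inhibition of growth. At the TGI there is no net growth.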

Experiments:
Assay in all cases: growth of human tumour cells (NCI), 48 h
[1] = tested on: SNB-75 CNS
[2] = tested on: SF-295 CNS
[3] = tested on: BT-549 breast
[4] = tested on: HT29 colon
[5] = tested on: HCT-116 colon
[6] = tested on: UO-31 renal
[7] = tested on: RPMI-8226 leukemia
[8] = tested on: HCC-2998 colon
[9] = tested on: SF-268 CNS
[10] = tested on: SNB-19 CNS

With `CCc1cccc(C(C)C)c1NC(=O)C(=O)C1C(=O)Nc2ccccc2S1=O` (configuration not stated) the TGI [1] was over 100 µM, the TGI [2] was over 100 µM and the TGI [3] was over 100 µM. It also gave a TGI [4] of over 100 µM, a TGI [5] of over 100 µM and a TGI [6] of over 100 µM. It also gave a TGI [7] of over 100 µM, a TGI [8] of over 100 µM and a TGI [9] of over 100 µM. The TGI [10] was over 100 µM.

`O=C1Nc2c(ccc(Cl)c2Cl)/C1=C/c1cc(Br)c(O)c(Br)c1` showed a GI50 [1] of 9 µM, a TGI [1] of 83.2 µM and a GI50 [2] of 2.71 µM. The TGI [2] was 19.8 µM, the GI50 [3] was 2.92 µM and the TGI [3] was 17.5 µM. It also gave a GI50 [4] of 4.05 µM, a TGI [4] of 23.7 µM and a GI50 [5] of 4.45 µM. It also gave a TGI [5] of over 44.9 µM, a GI50 [6] of 14.5 µM and a TGI [6] of over 49.7 µM. For the same compound, the GI50 [7] was 2.61 µM, the TGI [7] was 67.7 µM and the GI50 [8] was 6.59 µM. The TGI [8] was 32.5 µM, the GI50 [9] was 14.6 µM and the TGI [9] was over 100 µM. For the same compound, the GI50 [10] was 4.6 µM and the TGI [10] was over 63.3 µM.

In the case of `COC(=O)[C@@H]1c2cc3c(c(O)c2[C@@H](OC2OC(C)C(OC)C(C)(OC)C2OC)C[C@]1(C)O)C(=O)c1c(O)cc2c(c1C3=O)O[C@H]1O[C@]2(C)[C@H](O)[C@@H](N(C)C)[C@@H]1O` (some centres not stated), the TGI [1] is reported as 0.0522 µM and 0.0125 µM, the TGI [2] is reported as 0.254 µM and 1.22 µM and the TGI [3] is reported as 0.0588 µM. The TGI [4] was 10.1 µM, the GI50 [6] was 0.21 µM and the TGI [6] was 0.983 µM and 1.17 µM. For the same compound, the TGI [7] was 0.0557 µM, the TGI [8] was 0.0305 µM and 0.0223 µM and the TGI [9] was 0.329 µM and 0.135 µM. The TGI [10] was 11.1 µM.

Work on `Nc1nc(/C=C\c2ccc([N+](=O)[O-])s2)nc(N2CCN(c3ccccc3)CC2)n1` yielded a GI50 [1] of 33.1 µM, a TGI [1] of 60.5 µM and a GI50 [2] of 20 µM. The TGI [2] was 58.3 µM, the GI50 [3] was 21.8 µM and the TGI [3] was 48 µM. The GI50 [4] was 27.5 µM, the TGI [4] was 70.4 µM and the GI50 [5] was 17.2 µM. It also gave a TGI [5] of 31.5 µM, a GI50 [6] of 18.7 µM and a TGI [6] of 43.7 µM. It also gave a GI50 [7] of 22.9 µM, a TGI [7] of 74 µM and a GI50 [8] of 22.2 µM. The TGI [8] was 44.8 µM, the GI50 [9] was 27.2 µM and the TGI [9] was 80 µM. For the same compound, the GI50 [10] was 30.5 µM and the TGI [10] was 77 µM.

Work on `O=C(NCCCCN1CCOCC1)c1cc2ccccc2o1` yielded a GI50 [1] of over 100 µM, a TGI [1] of over 100 µM and a GI50 [2] of over 100 µM. It also gave a TGI [2] of over 100 µM, a GI50 [3] of over 100 µM and a TGI [3] of over 100 µM. For the same compound, the GI50 [4] was over 100 µM, the TGI [4] was over 100 µM and the GI50 [5] was over 100 µM. It also gave a TGI [5] of over 100 µM, a GI50 [6] of over 100 µM and a TGI [6] of over 100 µM. It also gave a GI50 [8] of over 100 µM, a TGI [8] of over 100 µM and a GI50 [9] of over 100 µM. It also gave a TGI [9] of over 100 µM, a GI50 [10] of over 100 µM and a TGI [10] of over 100 µM.

`COc1cc(/C=C2\CC3C4CC=C5C[C@@H](OC(C)=O)CC[C@]5(C)C4CC[C@]3(C)C2=O)ccc1OCCN1CCCCC1` (some centres not stated) showed a GI50 [1] of 27.3 µM, a TGI [1] of 56.9 µM and a GI50 [2] of 2.41 µM. It also gave a TGI [2] of 5.08 µM, a GI50 [3] of 15.1 µM and a TGI [3] of 31.7 µM. For the same compound, the GI50 [4] was 1.88 µM, the TGI [4] was over 100 µM and the GI50 [6] was 1.98 µM. For the same compound, the TGI [6] was 4.99 µM, the GI50 [8] was 2.7 µM and the TGI [8] was 6.59 µM. It also gave a GI50 [9] of 3.39 µM, a TGI [9] of 31.4 µM and a GI50 [10] of 8.46 µM. It also gave a TGI [10] of 43.3 µM.

For `CCOC(=O)Cc1c(C)c2cc(C(=O)c3ccccc3)c(O)cc2oc1=O`, the TGI [1] was 74.7 µM, the TGI [2] was over 100 µM and the TGI [3] was 59.8 µM. For the same compound, the TGI [4] was over 100 µM, the TGI [5] was over 100 µM and the TGI [7] was over 100 µM. The TGI [8] was over 100 µM, the TGI [9] was 84.9 µM and the TGI [10] was over 100 µM.

For `Cc1ccc(O)c(NC(=O)c2cccc(Nc3ccnc(C(F)(F)F)c3)c2)c1`, the GI50 [1] was 11.4 µM, the TGI [1] was 25.3 µM and the GI50 [2] was 6.73 µM. The TGI [2] was 27.6 µM, the GI50 [3] was 3.18 µM and the TGI [3] was 21.6 µM. For the same compound, the GI50 [4] was 15.7 µM, the TGI [4] was 33.4 µM and the GI50 [5] was 4.14 µM. The TGI [5] was 17.8 µM, the GI50 [6] was 3.03 µM and the TGI [6] was 18.1 µM. It also gave a GI50 [8] of 10.5 µM, a TGI [8] of 23.2 µM and a GI50 [9] of 13.3 µM. The TGI [9] was 39 µM, the GI50 [10] was 17.9 µM and the TGI [10] was 69.8 µM.

`O=C(O)CCNCC(=O)O` showed a TGI [1] of over 100 µM, a TGI [2] of over 100 µM and a TGI [3] of over 100 µM. It also gave a TGI [4] of over 100 µM, a TGI [5] of over 100 µM and a TGI [6] of over 100 µM. It also gave a TGI [7] of over 100 µM, a TGI [9] of over 100 µM and a TGI [10] of over 100 µM.

With `CN(Cc1ccccc1)Cn1ccnc1` the TGI [1] was over 100 µM, the TGI [2] was over 100 µM and the TGI [3] was over 100 µM. The TGI [4] was over 100 µM, the TGI [5] was over 100 µM and the TGI [6] was over 100 µM. For the same compound, the TGI [7] was over 78.1 µM, the TGI [9] was over 100 µM and the TGI [10] was over 100 µM.

`O=C(CN(/C=C/C(=O)C(F)(F)F)c1ccc(Cl)cc1)c1ccc(Cl)cc1` gave a GI50 [2] of 4.66 µM, a TGI [2] of 17.7 µM and a GI50 [3] of 17.6 µM. The TGI [3] was 43.9 µM, the GI50 [4] was 7.41 µM and the TGI [4] was over 100 µM. The GI50 [5] was 4.09 µM, the TGI [5] was 20.7 µM and the GI50 [6] was 12 µM. It also gave a TGI [6] of 24.8 µM, a GI50 [7] of 11.5 µM and a TGI [7] of 37.7 µM. The GI50 [8] was 15.7 µM, the TGI [8] was 35 µM and the GI50 [9] was 11.5 µM. The TGI [9] was 29.4 µM, the GI50 [10] was 11 µM and the TGI [10] was 31.2 µM.
